Organism: Rattus norvegicus
Experiment: DrugMatrix - Regimen: Daily Repeat
Type: toxicity, organism-based, Sprague-Dawley
Set-up: regimen Daily Repeat, gender Male, age 6-8 weeks
Conditions: in vivo, po, 0 mg/kg, route oral GAVAGE, dose level Control, vehicle .5 % CMC; for ABSOLUTE BASOPHIL / ABSOLUTE EOSINOPHIL / ABSOLUTE LYMPHOCYTE / ABSOLUTE MONOCYTE / ABSOLUTE SEGMENTED NEUTROPHIL / BASOPHIL / EOSINOPHIL / ERYTHROCYTE COUNT / HEMATOCRIT / HEMOGLOBIN / LEUKOCYTE COUNT / LYMPHOCYTE / MEAN CORPUSCULAR HEMOGLOBIN / MEAN CORPUSCULAR HEMOGLOBIN CONCENTRATION / MEAN CORPUSCULAR VOLUME / MONOCYTE / NEUTROPHIL / NUCLEATED RED BLOOD CELLS / PLATELET COUNT: tissue Blood; for ALANINE AMINOTRANSFERASE / ALBUMIN / ALKALINE PHOSPHATASE / ASPARTATE AMINOTRANSFERASE / BLOOD UREA NITROGEN / CARBON DIOXIDE / CHLORIDE / CHOLESTEROL / CREATINE PHOSPHOKINASE / CREATININE / GLUCOSE / LACTATE DEHYDROGENASE / LIPASE / PHOSPHORUS / POTASSIUM / SODIUM / TOTAL BILIRUBIN / TOTAL PROTEIN / URIC ACID: tissue Plasma

## C[C@H]1O[C@@H](n2cc(F)c(=O)[nH]c2=O)[C@H](O)[C@@H]1O [DOXIFLURIDINE]
72 h, time 3 day
  ABSOLUTE BASOPHIL: 0 CELLS/uL
  ABSOLUTE EOSINOPHIL: 0 CELLS/uL
  ABSOLUTE LYMPHOCYTE: 12191.17 CELLS/uL
  ABSOLUTE MONOCYTE: 183.17 CELLS/uL
  ABSOLUTE SEGMENTED NEUTROPHIL: 1192.33 CELLS/uL
  BASOPHIL: 0%
  EOSINOPHIL: 0%
  ERYTHROCYTE COUNT: 5.51 x10E6/uL
  HEMATOCRIT: 35.45%
  HEMOGLOBIN: 13.82 G/DL
  LEUKOCYTE COUNT: 13.57 x10E3/uL
  LYMPHOCYTE: 89.83%
  MEAN CORPUSCULAR HEMOGLOBIN: 25.1 pg
  MEAN CORPUSCULAR HEMOGLOBIN CONCENTRATION: 38.98 G/DL
  MEAN CORPUSCULAR VOLUME: 64.42 fL
  MONOCYTE: 1.33%
  NEUTROPHIL: 8.83%
  NUCLEATED RED BLOOD CELLS: 0 /100WBC
  PLATELET COUNT: 1118.17 x10E3/uL
  ALANINE AMINOTRANSFERASE: 55 u/L
  ALBUMIN: 4.15 G/DL
  ALKALINE PHOSPHATASE: 449.5 u/L
  ASPARTATE AMINOTRANSFERASE: 112.83 u/L
  BLOOD UREA NITROGEN: 17.33 mg/dL
  CARBON DIOXIDE: 29.5 mmol/L
  CHLORIDE: 101 MEQ/L
  CHOLESTEROL: 70 mg/dL
  CREATINE PHOSPHOKINASE: 1325.83 u/L
  CREATININE: 0.18 mg/dL
  GLUCOSE: 171.5 mg/dL
  LACTATE DEHYDROGENASE: 386 u/L
  LIPASE: 10 u/L
  PHOSPHORUS: 11.57 mg/dL
  POTASSIUM: 6.21 MEQ/L
  SODIUM: 141.65 MEQ/L
  TOTAL BILIRUBIN: 0.15 mg/dL
  TOTAL PROTEIN: 5.75 G/DL
  URIC ACID: 1.28 mg/dL
120 h, time 5 day
  ABSOLUTE BASOPHIL: 0 CELLS/uL
  ABSOLUTE EOSINOPHIL: 138.17 CELLS/uL
  ABSOLUTE LYMPHOCYTE: 13283.17 CELLS/uL
  ABSOLUTE MONOCYTE: 303.83 CELLS/uL
  ABSOLUTE SEGMENTED NEUTROPHIL: 1308.17 CELLS/uL
  BASOPHIL: 0%
  EOSINOPHIL: 1%
  ERYTHROCYTE COUNT: 5.32 x10E6/uL
  HEMATOCRIT: 33.8%
  HEMOGLOBIN: 13.63 G/DL
  LEUKOCYTE COUNT: 15.03 x10E3/uL
  LYMPHOCYTE: 88.33%
  MEAN CORPUSCULAR HEMOGLOBIN: 25.68 pg
  MEAN CORPUSCULAR HEMOGLOBIN CONCENTRATION: 40.35 G/DL
  MEAN CORPUSCULAR VOLUME: 63.67 fL
  MONOCYTE: 1.83%
  NEUTROPHIL: 8.83%
  NUCLEATED RED BLOOD CELLS: 0 /100WBC
  PLATELET COUNT: 1097.5 x10E3/uL
  ALANINE AMINOTRANSFERASE: 54.5 u/L
  ALBUMIN: 4.27 G/DL
  ALKALINE PHOSPHATASE: 337 u/L
  ASPARTATE AMINOTRANSFERASE: 94.67 u/L
  BLOOD UREA NITROGEN: 17 mg/dL
  CARBON DIOXIDE: 28.33 mmol/L
  CHLORIDE: 101.5 MEQ/L
  CHOLESTEROL: 71.33 mg/dL
  CREATINE PHOSPHOKINASE: 628.17 u/L
  CREATININE: 0.19 mg/dL
  GLUCOSE: 177.83 mg/dL
  LACTATE DEHYDROGENASE: 500.5 u/L
  LIPASE: 9.5 u/L
  PHOSPHORUS: 12.3 mg/dL
  POTASSIUM: 5.63 MEQ/L
  SODIUM: 143.03 MEQ/L
  TOTAL BILIRUBIN: 0.2 mg/dL
  TOTAL PROTEIN: 6.02 G/DL
  URIC ACID: 1.5 mg/dL

Reference: ChEMBL document CHEMBL3885881, “DrugMatrix”
